Values quoted from earlier work as cited in patent US10634592B2, “Process for microextraction and detection of an analyte” (KING FAHD UNIVERSITY OF PETROLEUM AND MINERALS, priority 2015, dated 2020).

system: not given; details: octanol-water partition coefficient

Row | SMILES | log Kow
1 | ClC(Br)Br [DBCM, dibromochloromethane] | 2.08
2 | CC(=O)C(Cl)(Cl)Cl [TCP, 1,1,1-trichloro-2-propanone] | 1.12
3 | CC(=O)C(Cl)Cl [DCP, 1,1-dichloro-2-propanone] | 0.20
4 | BrC(Br)Br [TBM, tribromomethane] | 2.38
5 | ClC(Cl)Cl [TCM, trichloromethane] | 1.97
6 | ClC(Cl)Br [BDCM, bromodichloromethane] | 1.88

system: cellular glutathione levels; details: prior to cytotoxic effects

Row | SMILES | Effect on cellular glutathione levels
7 | CC(=O)C(Cl)Cl [DCP, 1,1-dichloro-2-propanone] | reduce cellular glutathione levels
